Patent US11753489B2, “Nanoparticles using anionic polymer, preparation method and composition thereof” (IMGT CO, LTD., priority 2020, dated 2023)
Structures can show the parent of a compound that is named as a salt.

Tested on: Huh7 liver cancer cells
Test: in vitro cytotoxicity evaluation (viability analysis)
Format: cell-based
Conditions: FIG. 7
Experimental: Viability analysis was performed on Huh7 liver cancer cells to evaluate the toxicity of the prepared nanoparticles. Three groups were evaluated: doxorubicin hydrochloride (dox), particles loaded with doxorubicin (032d), and particles not loaded with doxorubicin (032).

## COc1cccc2c1C(=O)c1c(O)c3c(c(O)c1C2=O)C[C@@](O)(C(=O)CO)C[C@@H]3O[C@H]1C[C@H](N)[C@H](O)[C@H](C)O1 [doxorubicin hydrochloride]
  cell viability / cancer cell killing effect: cancer cell killing effect in a concentration-dependent manner
